# From paper PMC8539097, “Structural Insight into a Yeast Maltase—The BaAG2 from Blastobotrys adeninivorans with Transglycosylating Activity” (Journal of Fungi, 2021)
# Biological target: T1, BaAG2 (Blastobotrys adeninivorans, UniProt Z9CO09ION3)
# T1 construct: wild type, recombinant from plasmid pURI3-BaAG2Cter in E. coli BL21(DE3), Ni-IMAC purified (plus SEC for crystals); domains span residues 1-581; most likely monomer
# T1 sequence (Z9CO09ION3 1-580): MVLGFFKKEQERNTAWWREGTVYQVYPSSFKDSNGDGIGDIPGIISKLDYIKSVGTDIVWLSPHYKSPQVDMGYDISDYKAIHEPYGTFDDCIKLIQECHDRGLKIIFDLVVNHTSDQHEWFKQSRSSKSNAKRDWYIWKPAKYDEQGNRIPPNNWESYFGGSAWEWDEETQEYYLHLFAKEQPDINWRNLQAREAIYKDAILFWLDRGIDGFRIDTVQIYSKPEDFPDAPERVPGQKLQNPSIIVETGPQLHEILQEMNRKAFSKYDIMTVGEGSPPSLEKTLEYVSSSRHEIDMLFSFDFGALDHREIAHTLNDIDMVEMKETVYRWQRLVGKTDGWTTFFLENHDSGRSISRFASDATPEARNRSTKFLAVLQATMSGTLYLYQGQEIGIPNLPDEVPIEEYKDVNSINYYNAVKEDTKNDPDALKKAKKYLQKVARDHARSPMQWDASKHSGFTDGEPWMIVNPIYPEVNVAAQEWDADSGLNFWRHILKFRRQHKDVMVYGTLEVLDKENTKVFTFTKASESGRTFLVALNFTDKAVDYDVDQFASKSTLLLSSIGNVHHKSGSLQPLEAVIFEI
# Experiment: X-ray crystallography, crystal soaking, […] Å
# Assay type: binding
# Details: pH 5.5, 100 mM glucose soak; active site, subsite -1
smiles,measurement,value
OC[C@H]1OC(O)[C@H](O)[C@@H](O)[C@@H]1O (stereo partly drawn) [D-glucose],"X-ray crystallography, crystal soaking, 2.13 Å",codes 7P01 (BaAG2-acarbose) and 7P07 (BaAG2-glucose)
